Test results reported in ChEMBL document CHEMBL1909046, “DrugMatrix in vitro pharmacology data”.

Columns and labels:
[1] = molecular target: T1, Receptor-type tyrosine-protein phosphatase C (Homo sapiens, UniProt P08575); parameters: species or system Escherichia coli;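 note: inhibition of CD45 enzyme activity measured using DiFMUP as substrate; in other assays of this panel Not Active means under 50% inhibition at 10 µM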
T1 sequence (P08575 whole entry): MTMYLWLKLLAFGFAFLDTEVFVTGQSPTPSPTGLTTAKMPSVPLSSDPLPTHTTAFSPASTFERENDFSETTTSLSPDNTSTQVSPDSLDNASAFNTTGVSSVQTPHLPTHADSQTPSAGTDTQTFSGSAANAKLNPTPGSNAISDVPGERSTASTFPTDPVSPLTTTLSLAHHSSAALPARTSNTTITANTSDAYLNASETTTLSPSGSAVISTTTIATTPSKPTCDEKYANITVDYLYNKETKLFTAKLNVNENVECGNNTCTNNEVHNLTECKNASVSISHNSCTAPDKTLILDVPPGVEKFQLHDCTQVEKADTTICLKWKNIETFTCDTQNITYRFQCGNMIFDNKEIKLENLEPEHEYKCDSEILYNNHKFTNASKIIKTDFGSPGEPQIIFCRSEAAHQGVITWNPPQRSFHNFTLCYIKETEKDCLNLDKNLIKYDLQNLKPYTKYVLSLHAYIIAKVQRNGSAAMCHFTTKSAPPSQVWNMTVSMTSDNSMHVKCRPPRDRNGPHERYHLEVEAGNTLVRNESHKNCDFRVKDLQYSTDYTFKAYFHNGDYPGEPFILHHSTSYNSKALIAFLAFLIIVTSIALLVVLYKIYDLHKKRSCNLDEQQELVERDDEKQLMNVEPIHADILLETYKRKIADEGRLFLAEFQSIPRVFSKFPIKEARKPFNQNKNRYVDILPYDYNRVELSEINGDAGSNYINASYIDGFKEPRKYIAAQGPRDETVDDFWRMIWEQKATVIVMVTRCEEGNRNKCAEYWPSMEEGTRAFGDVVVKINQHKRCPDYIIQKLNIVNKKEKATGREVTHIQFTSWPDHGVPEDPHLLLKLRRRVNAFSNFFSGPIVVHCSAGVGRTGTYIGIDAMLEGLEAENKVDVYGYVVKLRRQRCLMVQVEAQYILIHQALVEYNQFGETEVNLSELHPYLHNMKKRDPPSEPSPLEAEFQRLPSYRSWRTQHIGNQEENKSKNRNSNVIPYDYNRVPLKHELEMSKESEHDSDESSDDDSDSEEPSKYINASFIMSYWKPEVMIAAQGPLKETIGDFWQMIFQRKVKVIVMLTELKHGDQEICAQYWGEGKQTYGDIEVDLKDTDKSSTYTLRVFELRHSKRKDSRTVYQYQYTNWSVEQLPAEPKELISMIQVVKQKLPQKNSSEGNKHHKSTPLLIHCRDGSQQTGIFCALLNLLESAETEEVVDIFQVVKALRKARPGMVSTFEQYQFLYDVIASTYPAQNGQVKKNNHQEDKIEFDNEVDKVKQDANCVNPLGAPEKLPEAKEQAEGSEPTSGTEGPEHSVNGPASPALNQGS

Interstitial collagenase = molecular target: T2, Interstitial collagenase (Homo sapiens, UniProt P03956); assay: biochemical; format: tissue-based, Rheumatoid synovial fibroblasts;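 note: MMP-1 enzyme inhibition assay using a peptide substrate; in other assays of this panel Not Active means under 50% inhibition at 10 µM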
T2 sequence (P03956 whole entry): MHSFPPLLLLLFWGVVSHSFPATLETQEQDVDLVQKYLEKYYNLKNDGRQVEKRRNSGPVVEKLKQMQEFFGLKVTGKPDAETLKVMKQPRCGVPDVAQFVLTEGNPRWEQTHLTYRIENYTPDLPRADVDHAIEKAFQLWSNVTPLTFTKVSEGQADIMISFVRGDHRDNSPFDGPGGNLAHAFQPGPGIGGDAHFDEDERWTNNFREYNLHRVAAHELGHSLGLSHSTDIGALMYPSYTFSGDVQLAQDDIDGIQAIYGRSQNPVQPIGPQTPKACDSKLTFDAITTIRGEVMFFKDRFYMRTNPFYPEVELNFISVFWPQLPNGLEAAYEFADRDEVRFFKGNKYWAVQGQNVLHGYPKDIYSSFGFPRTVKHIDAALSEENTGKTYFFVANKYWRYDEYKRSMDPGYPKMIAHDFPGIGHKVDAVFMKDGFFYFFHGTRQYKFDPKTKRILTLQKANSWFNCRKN

[2] = DRUGMATRIX: GABAA, Muscimol, Central radioligand binding (ligand: [3H] Muscimol); format: cell membranes, Rattus norvegicus, Wistar, Brain, Membrane; settings: Not Active = under 50% inhibition at 10 µM
[3] = molecular target: Platelet-activating factor receptor (Homo sapiens, UniProt P25105); format: tissue-based; note: in other assays of this panel Not Active means under 50% inhibition at 10 µM
Chain of Platelet-activating factor receptor (P25105 whole entry): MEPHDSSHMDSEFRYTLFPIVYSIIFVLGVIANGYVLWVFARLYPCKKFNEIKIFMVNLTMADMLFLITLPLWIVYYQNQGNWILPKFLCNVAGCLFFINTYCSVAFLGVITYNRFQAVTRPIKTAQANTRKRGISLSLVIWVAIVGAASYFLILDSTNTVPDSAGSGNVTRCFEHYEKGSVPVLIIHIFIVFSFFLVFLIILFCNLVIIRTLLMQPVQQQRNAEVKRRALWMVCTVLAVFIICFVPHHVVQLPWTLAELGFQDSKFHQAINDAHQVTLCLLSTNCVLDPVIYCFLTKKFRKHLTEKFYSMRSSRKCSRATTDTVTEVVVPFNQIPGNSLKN

[4] = molecular target: Beta-2 adrenergic receptor (Homo sapiens, UniProt P07550); assay: DRUGMATRIX: Adrenergic beta2 radioligand binding (ligand: [3H] CGP-12177); format: cell membranes, CHO, Membrane; settings: cho; Not Active = under 50% inhibition at 10 µM
Calcitonin receptor = molecular target: T3, Calcitonin receptor (Homo sapiens, UniProt P30988); format: cell membranes, Membrane; settings: t47d; note: in other assays of this panel Not Active means under 50% inhibition at 10 µM
T3 sequence (P30988 whole entry): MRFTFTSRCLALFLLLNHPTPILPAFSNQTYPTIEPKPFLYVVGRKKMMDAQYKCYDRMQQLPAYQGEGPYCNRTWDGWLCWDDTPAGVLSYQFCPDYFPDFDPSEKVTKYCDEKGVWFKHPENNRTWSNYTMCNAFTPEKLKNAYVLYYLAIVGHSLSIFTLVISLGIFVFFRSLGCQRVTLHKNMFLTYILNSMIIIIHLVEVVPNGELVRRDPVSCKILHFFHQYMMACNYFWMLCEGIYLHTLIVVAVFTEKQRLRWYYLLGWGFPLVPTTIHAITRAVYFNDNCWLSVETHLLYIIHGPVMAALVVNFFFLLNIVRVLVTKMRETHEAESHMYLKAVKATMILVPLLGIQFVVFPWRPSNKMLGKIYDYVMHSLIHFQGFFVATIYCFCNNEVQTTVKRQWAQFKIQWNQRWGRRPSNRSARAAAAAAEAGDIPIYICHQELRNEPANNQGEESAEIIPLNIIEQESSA

[5] = DRUGMATRIX: ATPase, Na+/K+ enzyme inhibition (substrate: ATP); format: tissue-based, Sus scrofa, Heart; settings: Not Active = under 50% inhibition at 10 µM
[6] = DRUGMATRIX: Calcium Channel Type L, Dihydropyridine radioligand binding (ligand: [3H] Nitrendipine); format: cell membranes, Rattus norvegicus, Wistar, Cerebral cortex, Membrane; settings: Not Active = under 50% inhibition at 10 µM
[7] = DRUGMATRIX: Phorbol Ester radioligand binding (ligand: [3H] PDBu); format: cell membranes, Mus musculus, ICR, Brain, Membrane; settings: Not Active = under 50% inhibition at 10 µM

COc1cc2nc(N3CCN(C(=O)C4CCCO4)CC3)nc(N)c2cc1OC (stereo not drawn) [TERAZOSIN]
Not Active: IC50 [1] | IC50 (Interstitial collagenase) | IC50 [2] | Ki [2] | IC50 [3] | IC50 [4] | IC50 (Calcitonin receptor) | IC50 [5] | Ki [5] | IC50 [6] | Ki [6] | IC50 [7] | Ki [7]

CN(C/C=C/C#CC(C)(C)C)Cc1cccc2ccccc12 [TERBINAFINE]
Not Active: IC50 [1] | IC50 (Interstitial collagenase) | IC50 [2] | Ki [2] | IC50 [3] | IC50 [4] | IC50 (Calcitonin receptor) | IC50 [5] | Ki [5] | IC50 [6] | Ki [6] | IC50 [7] | Ki [7]

CCCCNc1ccc(C(=O)OCCN(C)C)cc1 [TETRACAINE]
Not Active: IC50 [1] | IC50 (Interstitial collagenase) | IC50 [2] | Ki [2] | IC50 [3] | IC50 [4] | IC50 (Calcitonin receptor) | IC50 [5] | Ki [5] | IC50 [6] | Ki [6] | IC50 [7] | Ki [7]

Cn1c(=O)c2nc[nH]c2n(C)c1=O.O [THEOPHYLLINE]
Not Active: IC50 [1] | IC50 (Interstitial collagenase) | IC50 [2] | Ki [2] | IC50 [3] | IC50 [4] | IC50 (Calcitonin receptor) | IC50 [5] | Ki [5] | IC50 [6] | Ki [6] | IC50 [7] | Ki [7]

CS(=O)(=O)c1ccc([C@@H](O)[C@@H](CO)NC(=O)C(Cl)Cl)cc1 [THIAMPHENICOL]
Not Active: IC50 [1] | IC50 (Interstitial collagenase) | IC50 [2] | Ki [2] | IC50 [3] | IC50 [4] | IC50 (Calcitonin receptor) | IC50 [5] | Ki [5] | IC50 [6] | Ki [6] | IC50 [7] | Ki [7]

CCN(CC)CCNC(=O)c1cc(S(C)(=O)=O)ccc1OC [TIAPRIDE]
Not Active: IC50 [1] | IC50 (Interstitial collagenase) | IC50 [2] | Ki [2] | IC50 [3] | IC50 [4] | IC50 (Calcitonin receptor) | IC50 [5] | Ki [5] | IC50 [6] | Ki [6] | IC50 [7] | Ki [7]

Clc1ccccc1CN1CCc2sccc2C1 [TICLOPIDINE]
Not Active: IC50 [1] | IC50 (Interstitial collagenase) | IC50 [2] | Ki [2] | IC50 [3] | IC50 [4] | IC50 (Calcitonin receptor) | IC50 [5] | Ki [5] | IC50 [6] | Ki [6] | IC50 [7] | Ki [7]

NC1CCN(c2nc3c(cc2F)c(=O)c(C(=O)O)cn3-c2ccc(F)cc2F)C1 (stereo not drawn) [TOSUFLOXACIN]
Not Active: IC50 [1] | IC50 (Interstitial collagenase) | IC50 [2] | Ki [2] | IC50 [3] | IC50 [4] | IC50 (Calcitonin receptor) | IC50 [5] | Ki [5] | IC50 [6] | Ki [6] | IC50 [7] | Ki [7]

O=C(Nc1ccc(Br)cc1)c1cc(Br)cc(Br)c1O [TRIBROMSALAN]
Not Active: IC50 [1] | IC50 (Interstitial collagenase) | IC50 [2] | Ki [2] | IC50 [3] | IC50 [4] | IC50 (Calcitonin receptor) | IC50 [5] | Ki [5] | IC50 [6] | Ki [6] | IC50 [7] | Ki [7]

CC(c1cc2ccccc2s1)N(O)C(N)=O (stereo not drawn) [ZILEUTON]
Not Active: IC50 [1] | IC50 (Interstitial collagenase) | IC50 [2] | Ki [2] | IC50 [3] | IC50 [4] | IC50 (Calcitonin receptor) | IC50 [5] | Ki [5] | IC50 [6] | Ki [6] | IC50 [7] | Ki [7]

MANGANESE CHLORIDE ANHYDROUS
Not Active: IC50 [1] | Ki [1] | IC50 (Interstitial collagenase) | Ki (Interstitial collagenase) | IC50 [2] | Ki [2] | IC50 [3] | Ki [3] | IC50 [4] | Ki [4] | IC50 (Calcitonin receptor) | Ki (Calcitonin receptor) | IC50 [5] | Ki [5] | IC50 [6] | Ki [6] | IC50 [7] | Ki [7]
